Test results: paper PMC3445516 (PLoS ONE, 2012)

Experiments:
Assay in all cases: Ambit kinase profiling, competition binding
TAK1 = target: T1, TAK1 (Homo sapiens, UniProt O43318); details: compound concentration 10 uM, read-out: Percent Competition
T1 construct: purchased Ambit Biosciences (KINOMEscan)
Source text: (§1) Supplement pone.0044653.s004.xls, sheet "Compound 122" | column: Percent Competition

ERK5 = target: T2, ERK5 (Homo sapiens, UniProt Q13164); details: compound concentration 10 uM, read-out: Percent Competition
T2 construct: purchased Ambit Biosciences (KINOMEscan)
Source text: as §1

PIP5K2B = target: T3, PIP5K2B (Homo sapiens, UniProt P78356); details: compound concentration 10 uM, read-out: Percent Competition
T3 construct: purchased Ambit Biosciences (KINOMEscan)
Source text: as §1

PIM2 = target: T4, PIM2 (Homo sapiens, UniProt Q9P1W9); details: compound concentration 10 uM, read-out: Percent Competition
T4 construct: purchased Ambit Biosciences (KINOMEscan)
Source text: as §1

ACVR2A = target: T5, ACVR2A (Homo sapiens, UniProt P27037); details: compound concentration 10 uM, read-out: Percent Competition
T5 construct: purchased Ambit Biosciences (KINOMEscan)
Source text: as §1

RET(V804L) = target: T6, RET(V804L) (Homo sapiens, UniProt P07949, V804L); details: compound concentration 10 uM, read-out: Percent Competition
T6 construct: purchased Ambit Biosciences (KINOMEscan)
Source text: as §1

DRAK1 = target: T7, DRAK1 (Homo sapiens, UniProt Q9UEE5); details: compound concentration 10 uM, read-out: Percent Competition
T7 construct: purchased Ambit Biosciences (KINOMEscan)
Source text: as §1

[1] = target: T8, JAK1(JH1domain-catalytic) (Homo sapiens, UniProt P23458); details: compound concentration 10 uM
T8 construct: JAK1(JH1domain-catalytic); purchased Ambit Biosciences (KINOMEscan)
Source text: as §1

MKNK1 = target: T9, MKNK1 (Homo sapiens, UniProt Q9BUB5); details: compound concentration 10 uM, read-out: Percent Competition
T9 construct: purchased Ambit Biosciences (KINOMEscan)
Source text: as §1

BIKE = target: T10, BIKE (Homo sapiens, UniProt Q9NSY1); details: compound concentration 10 uM, read-out: Percent Competition
T10 construct: purchased Ambit Biosciences (KINOMEscan)
Source text: as §1

SRMS = target: T11, SRMS (Homo sapiens, UniProt Q9H3Y6); details: compound concentration 10 uM, read-out: Percent Competition
T11 construct: purchased Ambit Biosciences (KINOMEscan)
Source text: as §1

ARK5 = target: T12, ARK5 (Homo sapiens, UniProt O60285); details: compound concentration 10 uM
T12 construct: purchased Ambit Biosciences (KINOMEscan)
Source text: as §1

MKNK2 = target: T13, MKNK2 (Homo sapiens, UniProt Q9HBH9); details: compound concentration 10 uM, read-out: Percent Competition
T13 construct: purchased Ambit Biosciences (KINOMEscan)
Source text: as §1

PIK3CG = target: T14, PIK3CG (Homo sapiens, UniProt P48736); details: compound concentration 10 uM, read-out: Percent Competition
T14 construct: purchased Ambit Biosciences (KINOMEscan)
Source text: as §1

FGFR2 = target: T15, FGFR2 (Homo sapiens, UniProt P21802); details: compound concentration 10 uM, read-out: Percent Competition
T15 construct: purchased Ambit Biosciences (KINOMEscan)
Source text: as §1

TNK1 = target: T16, TNK1 (Homo sapiens, UniProt Q13470); details: compound concentration 10 uM, read-out: Percent Competition
T16 construct: purchased Ambit Biosciences (KINOMEscan)
Source text: as §1

PAK2 = target: T17, PAK2 (Homo sapiens, UniProt Q13177); details: compound concentration 10 uM, read-out: Percent Competition
T17 construct: purchased Ambit Biosciences (KINOMEscan)
Source text: as §1

RIOK1 = target: T18, RIOK1 (Homo sapiens, UniProt Q9BRS2); details: compound concentration 10 uM, read-out: Percent Competition
T18 construct: purchased Ambit Biosciences (KINOMEscan)
Source text: as §1

FLT4 = target: T19, FLT4 (Homo sapiens, UniProt P35916); details: compound concentration 10 uM, read-out: Percent Competition
T19 construct: purchased Ambit Biosciences (KINOMEscan)
Source text: as §1

FLT1 = target: T20, FLT1 (Homo sapiens, UniProt P17948); details: compound concentration 10 uM, read-out: Percent Competition
T20 construct: purchased Ambit Biosciences (KINOMEscan)
Source text: as §1

FES = target: T21, FES (Homo sapiens, UniProt P07332); details: compound concentration 10 uM, read-out: Percent Competition
T21 construct: purchased Ambit Biosciences (KINOMEscan)
Source text: as §1

TLK2 = target: T22, TLK2 (Homo sapiens, UniProt Q86UE8); details: compound concentration 10 uM, read-out: Percent Competition
T22 construct: purchased Ambit Biosciences (KINOMEscan)
Source text: as §1

AURKB = target: T23, AURKB (Homo sapiens, UniProt Q96GD4); details: compound concentration 10 uM, read-out: Percent Competition
T23 construct: purchased Ambit Biosciences (KINOMEscan)
Source text: as §1

ASK1 = target: T24, ASK1 (Homo sapiens, UniProt Q99683); details: compound concentration 10 uM, read-out: Percent Competition
T24 construct: purchased Ambit Biosciences (KINOMEscan)
Source text: as §1

CSF1R = target: T25, CSF1R (Homo sapiens, UniProt P07333); details: compound concentration 10 uM, read-out: Percent Competition
T25 construct: purchased Ambit Biosciences (KINOMEscan)
Source text: as §1

ABL1(H396P) = target: T26, ABL1(H396P) (Homo sapiens, UniProt P00519, H396P); details: compound concentration 10 uM, read-out: Percent Competition
T26 construct: purchased Ambit Biosciences (KINOMEscan)
Source text: as §1

IKK-alpha = target: T27, IKK-alpha (Homo sapiens, UniProt O15111); details: compound concentration 10 uM, read-out: Percent Competition
T27 construct: purchased Ambit Biosciences (KINOMEscan)
Source text: as §1

BMPR1A = target: T28, BMPR1A (Homo sapiens, UniProt P36894); details: compound concentration 10 uM, read-out: Percent Competition
T28 construct: purchased Ambit Biosciences (KINOMEscan)
Source text: as §1

PLK3 = target: T29, PLK3 (Homo sapiens, UniProt Q9H4B4); details: compound concentration 10 uM, read-out: Percent Competition
T29 construct: purchased Ambit Biosciences (KINOMEscan)
Source text: as §1

SIK = target: T30, SIK (Homo sapiens, UniProt P57059); details: compound concentration 10 uM
T30 construct: purchased Ambit Biosciences (KINOMEscan)
Source text: as §1

DCAMKL3 = target: T31, DCAMKL3 (Homo sapiens, UniProt Q9C098); details: compound concentration 10 uM, read-out: Percent Competition
T31 construct: purchased Ambit Biosciences (KINOMEscan)
Source text: as §1

KIT = target: T32, KIT (Homo sapiens, UniProt P10721); details: compound concentration 10 uM, read-out: Percent Competition
T32 construct: purchased Ambit Biosciences (KINOMEscan)
Source text: as §1

NEK2 = target: T33, NEK2 (Homo sapiens, UniProt P51955); details: compound concentration 10 uM, read-out: Percent Competition
T33 construct: purchased Ambit Biosciences (KINOMEscan)
Source text: as §1

[2] = target: T34, RPS6KA3(Kin.Dom.1-N-terminal) (Homo sapiens, UniProt P51812); details: compound concentration 10 uM, read-out: Percent Competition
T34 construct: RPS6KA3(Kin.Dom.1-N-terminal); purchased Ambit Biosciences (KINOMEscan)
Source text: as §1

PRKR = target: T35, PRKR (Homo sapiens, UniProt P19525); details: compound concentration 10 uM
T35 construct: purchased Ambit Biosciences (KINOMEscan)
Source text: as §1

PKN2 = target: T36, PKN2 (Homo sapiens, UniProt Q16513); details: compound concentration 10 uM, read-out: Percent Competition
T36 construct: purchased Ambit Biosciences (KINOMEscan)
Source text: as §1

STK33 = target: T37, STK33 (Homo sapiens, UniProt Q9BYT3); details: compound concentration 10 uM, read-out: Percent Competition
T37 construct: purchased Ambit Biosciences (KINOMEscan)
Source text: as §1

INSR = target: T38, INSR (Homo sapiens, UniProt P06213); details: compound concentration 10 uM, read-out: Percent Competition
T38 construct: purchased Ambit Biosciences (KINOMEscan)
Source text: as §1

ABL1(F317L) = target: T39, ABL1(F317L) (Homo sapiens, UniProt P00519, F317L); details: compound concentration 10 uM, read-out: Percent Competition
T39 construct: purchased Ambit Biosciences (KINOMEscan)
Source text: as §1

TIE2 = target: T40, TIE2 (Homo sapiens, UniProt Q02763); details: compound concentration 10 uM, read-out: Percent Competition
T40 construct: purchased Ambit Biosciences (KINOMEscan)
Source text: as §1

MERTK = target: T41, MERTK (Homo sapiens, UniProt Q12866); details: compound concentration 10 uM, read-out: Percent Competition
T41 construct: purchased Ambit Biosciences (KINOMEscan)
Source text: as §1

T37 sequence (Q9BYT3 whole entry): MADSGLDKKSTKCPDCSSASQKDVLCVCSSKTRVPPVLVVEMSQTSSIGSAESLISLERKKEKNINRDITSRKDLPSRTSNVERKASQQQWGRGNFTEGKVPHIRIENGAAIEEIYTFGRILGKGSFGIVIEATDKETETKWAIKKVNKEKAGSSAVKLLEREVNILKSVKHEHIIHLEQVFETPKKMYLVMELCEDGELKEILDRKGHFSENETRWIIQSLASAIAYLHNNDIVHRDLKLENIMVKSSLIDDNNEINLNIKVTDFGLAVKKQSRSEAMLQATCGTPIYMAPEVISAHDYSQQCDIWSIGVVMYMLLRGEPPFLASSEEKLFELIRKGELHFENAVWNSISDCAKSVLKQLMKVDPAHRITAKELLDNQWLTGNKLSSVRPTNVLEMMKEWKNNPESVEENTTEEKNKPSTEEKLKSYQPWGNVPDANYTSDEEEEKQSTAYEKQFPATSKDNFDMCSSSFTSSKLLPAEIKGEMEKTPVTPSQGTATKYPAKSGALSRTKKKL
T4 sequence (Q9P1W9 whole entry): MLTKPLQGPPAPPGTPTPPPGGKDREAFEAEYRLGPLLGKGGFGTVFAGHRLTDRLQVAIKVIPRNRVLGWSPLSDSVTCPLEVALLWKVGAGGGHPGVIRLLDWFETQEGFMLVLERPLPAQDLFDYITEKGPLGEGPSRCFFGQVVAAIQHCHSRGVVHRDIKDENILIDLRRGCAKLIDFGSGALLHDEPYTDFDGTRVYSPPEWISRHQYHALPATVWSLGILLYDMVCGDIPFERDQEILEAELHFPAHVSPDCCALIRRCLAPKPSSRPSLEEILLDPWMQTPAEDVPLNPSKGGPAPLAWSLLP
T28 sequence (P36894 24-532): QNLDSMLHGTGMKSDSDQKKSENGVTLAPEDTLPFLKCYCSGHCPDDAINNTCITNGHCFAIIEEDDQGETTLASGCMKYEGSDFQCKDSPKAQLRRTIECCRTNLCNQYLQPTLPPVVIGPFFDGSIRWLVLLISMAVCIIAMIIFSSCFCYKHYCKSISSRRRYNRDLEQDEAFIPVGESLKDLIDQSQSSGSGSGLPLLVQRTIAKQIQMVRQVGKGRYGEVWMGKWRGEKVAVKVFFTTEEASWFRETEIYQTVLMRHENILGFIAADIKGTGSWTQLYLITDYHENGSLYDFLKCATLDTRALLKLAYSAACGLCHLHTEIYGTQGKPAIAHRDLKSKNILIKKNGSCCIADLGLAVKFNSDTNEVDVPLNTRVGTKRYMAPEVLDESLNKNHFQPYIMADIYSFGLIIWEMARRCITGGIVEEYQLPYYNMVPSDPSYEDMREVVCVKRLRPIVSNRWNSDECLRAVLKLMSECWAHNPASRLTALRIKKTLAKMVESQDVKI
T10 sequence (Q9NSY1 whole entry): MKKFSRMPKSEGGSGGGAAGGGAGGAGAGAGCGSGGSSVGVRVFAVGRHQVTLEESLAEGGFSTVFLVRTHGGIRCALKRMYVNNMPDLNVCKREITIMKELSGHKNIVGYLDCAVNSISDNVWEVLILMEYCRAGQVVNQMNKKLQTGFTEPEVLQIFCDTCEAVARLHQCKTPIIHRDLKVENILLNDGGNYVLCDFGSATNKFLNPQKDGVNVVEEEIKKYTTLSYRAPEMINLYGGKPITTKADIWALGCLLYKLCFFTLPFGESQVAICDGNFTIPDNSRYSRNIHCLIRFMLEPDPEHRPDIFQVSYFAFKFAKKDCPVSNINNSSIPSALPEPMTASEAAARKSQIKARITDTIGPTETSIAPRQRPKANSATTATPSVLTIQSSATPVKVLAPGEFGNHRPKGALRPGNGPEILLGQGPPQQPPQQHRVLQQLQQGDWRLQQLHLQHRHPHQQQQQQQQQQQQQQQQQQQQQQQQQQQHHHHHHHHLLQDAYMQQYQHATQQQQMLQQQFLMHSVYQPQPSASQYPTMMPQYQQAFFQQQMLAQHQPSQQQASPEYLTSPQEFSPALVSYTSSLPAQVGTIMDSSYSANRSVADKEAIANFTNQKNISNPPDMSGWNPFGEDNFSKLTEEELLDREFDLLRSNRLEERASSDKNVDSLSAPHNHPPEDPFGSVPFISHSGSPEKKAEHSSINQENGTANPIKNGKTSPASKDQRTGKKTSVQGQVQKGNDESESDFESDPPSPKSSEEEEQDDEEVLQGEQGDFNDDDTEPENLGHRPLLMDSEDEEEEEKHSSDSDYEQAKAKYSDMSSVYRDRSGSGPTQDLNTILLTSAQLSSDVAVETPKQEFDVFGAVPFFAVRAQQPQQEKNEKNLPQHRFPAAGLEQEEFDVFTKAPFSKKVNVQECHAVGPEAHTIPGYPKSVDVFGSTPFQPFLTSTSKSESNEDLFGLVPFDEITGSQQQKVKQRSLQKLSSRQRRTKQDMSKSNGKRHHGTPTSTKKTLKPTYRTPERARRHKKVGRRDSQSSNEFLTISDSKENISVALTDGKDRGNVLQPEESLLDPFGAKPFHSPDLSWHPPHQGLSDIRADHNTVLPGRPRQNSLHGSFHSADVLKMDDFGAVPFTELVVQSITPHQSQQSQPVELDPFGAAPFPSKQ
T7 sequence (Q9UEE5 whole entry): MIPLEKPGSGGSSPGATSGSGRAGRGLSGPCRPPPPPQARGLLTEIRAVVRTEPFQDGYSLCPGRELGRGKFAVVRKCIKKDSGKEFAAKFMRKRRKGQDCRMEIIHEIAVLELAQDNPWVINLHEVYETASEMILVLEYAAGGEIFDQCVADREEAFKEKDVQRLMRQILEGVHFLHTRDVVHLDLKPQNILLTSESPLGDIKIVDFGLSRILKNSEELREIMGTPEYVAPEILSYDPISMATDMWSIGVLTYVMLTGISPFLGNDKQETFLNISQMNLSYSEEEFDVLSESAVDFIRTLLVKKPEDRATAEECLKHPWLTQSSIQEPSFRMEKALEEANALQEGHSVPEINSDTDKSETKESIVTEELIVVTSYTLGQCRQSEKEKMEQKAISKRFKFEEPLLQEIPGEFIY
T5 sequence (P27037 20-513): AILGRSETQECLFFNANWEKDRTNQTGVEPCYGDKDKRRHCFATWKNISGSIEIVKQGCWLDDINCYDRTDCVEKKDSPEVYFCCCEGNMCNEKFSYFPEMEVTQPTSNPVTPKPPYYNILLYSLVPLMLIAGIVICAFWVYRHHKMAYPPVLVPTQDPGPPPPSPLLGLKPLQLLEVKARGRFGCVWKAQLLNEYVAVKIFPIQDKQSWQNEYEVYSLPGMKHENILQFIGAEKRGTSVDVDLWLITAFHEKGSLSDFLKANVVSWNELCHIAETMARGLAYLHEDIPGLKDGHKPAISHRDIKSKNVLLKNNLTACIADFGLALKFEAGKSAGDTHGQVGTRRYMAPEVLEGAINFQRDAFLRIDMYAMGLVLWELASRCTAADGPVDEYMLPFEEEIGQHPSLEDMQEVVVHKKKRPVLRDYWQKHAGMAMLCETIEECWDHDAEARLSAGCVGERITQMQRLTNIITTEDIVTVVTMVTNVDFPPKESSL
T9 sequence (Q9BUB5 whole entry): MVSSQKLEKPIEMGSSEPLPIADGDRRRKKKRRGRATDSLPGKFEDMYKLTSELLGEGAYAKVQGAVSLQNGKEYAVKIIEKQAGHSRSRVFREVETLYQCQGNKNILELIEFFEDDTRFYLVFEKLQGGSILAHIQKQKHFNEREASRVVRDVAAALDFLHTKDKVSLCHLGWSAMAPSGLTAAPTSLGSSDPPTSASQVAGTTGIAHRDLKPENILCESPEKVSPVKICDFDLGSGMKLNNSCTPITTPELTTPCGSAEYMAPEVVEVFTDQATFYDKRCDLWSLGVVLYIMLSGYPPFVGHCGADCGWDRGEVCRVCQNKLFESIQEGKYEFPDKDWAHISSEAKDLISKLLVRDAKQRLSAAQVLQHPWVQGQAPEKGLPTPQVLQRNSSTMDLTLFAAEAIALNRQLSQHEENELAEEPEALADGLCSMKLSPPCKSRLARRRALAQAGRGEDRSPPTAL
T17 sequence (Q13177 whole entry): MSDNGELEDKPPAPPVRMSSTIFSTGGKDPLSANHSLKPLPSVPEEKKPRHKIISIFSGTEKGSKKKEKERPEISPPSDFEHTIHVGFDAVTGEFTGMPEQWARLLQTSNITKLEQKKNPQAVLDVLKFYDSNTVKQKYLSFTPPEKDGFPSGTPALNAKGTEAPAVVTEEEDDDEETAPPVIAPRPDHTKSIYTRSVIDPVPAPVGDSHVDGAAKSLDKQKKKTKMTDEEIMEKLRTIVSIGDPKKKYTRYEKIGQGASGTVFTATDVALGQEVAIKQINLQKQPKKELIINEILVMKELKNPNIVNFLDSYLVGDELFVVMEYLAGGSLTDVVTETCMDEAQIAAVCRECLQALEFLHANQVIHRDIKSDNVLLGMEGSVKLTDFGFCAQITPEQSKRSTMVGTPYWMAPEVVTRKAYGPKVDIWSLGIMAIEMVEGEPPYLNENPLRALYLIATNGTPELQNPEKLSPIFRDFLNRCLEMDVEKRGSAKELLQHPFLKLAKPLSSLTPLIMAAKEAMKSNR
T1 sequence (O43318 whole entry): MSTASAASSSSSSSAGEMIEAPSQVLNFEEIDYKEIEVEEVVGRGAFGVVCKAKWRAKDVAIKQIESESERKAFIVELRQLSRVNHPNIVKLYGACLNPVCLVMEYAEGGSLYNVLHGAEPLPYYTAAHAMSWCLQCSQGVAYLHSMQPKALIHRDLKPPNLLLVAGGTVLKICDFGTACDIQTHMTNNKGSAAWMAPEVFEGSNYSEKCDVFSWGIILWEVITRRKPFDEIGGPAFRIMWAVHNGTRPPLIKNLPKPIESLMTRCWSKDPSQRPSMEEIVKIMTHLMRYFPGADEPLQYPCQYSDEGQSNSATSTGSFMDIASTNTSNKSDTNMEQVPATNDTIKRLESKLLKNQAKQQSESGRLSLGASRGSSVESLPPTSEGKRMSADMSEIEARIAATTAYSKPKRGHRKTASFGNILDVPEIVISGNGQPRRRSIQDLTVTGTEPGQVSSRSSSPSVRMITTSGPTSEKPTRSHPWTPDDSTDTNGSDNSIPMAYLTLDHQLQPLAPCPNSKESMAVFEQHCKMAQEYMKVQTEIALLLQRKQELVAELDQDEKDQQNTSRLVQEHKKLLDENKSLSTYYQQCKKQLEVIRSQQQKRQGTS

inhibition at 10 µM (TAK1): < 50%
inhibition at 10 µM (ERK5): < 50%
inhibition at 10 µM (PIP5K2B): < 50%
inhibition at 10 µM (PIM2): < 50%
inhibition at 10 µM (ACVR2A): < 50%
inhibition at 10 µM (RET(V804L)): < 50%
inhibition at 10 µM (DRAK1): < 50%
Percent Competition [1]: <50%
inhibition at 10 µM (MKNK1): < 50%
inhibition at 10 µM (BIKE): < 50%
inhibition at 10 µM (SRMS): < 50%
Percent Competition (ARK5): <50%
inhibition at 10 µM (MKNK2): < 50%
inhibition at 10 µM (PIK3CG): < 50%
inhibition at 10 µM (FGFR2): < 50%
inhibition at 10 µM (TNK1): < 50%
inhibition at 10 µM (PAK2): < 50%
inhibition at 10 µM (RIOK1): < 50%
inhibition at 10 µM (FLT4): < 50%
inhibition at 10 µM (FLT1): < 50%
inhibition at 10 µM (FES): < 50%
inhibition at 10 µM (TLK2): < 50%
inhibition at 10 µM (AURKB): < 50%
inhibition at 10 µM (ASK1): < 50%
inhibition at 10 µM (CSF1R): < 50%
inhibition at 10 µM (ABL1(H396P)): < 50%
inhibition at 10 µM (IKK-alpha): < 50%
inhibition at 10 µM (BMPR1A): < 50%
inhibition at 10 µM (PLK3): < 50%
Percent Competition (SIK): <50%
inhibition at 10 µM (DCAMKL3): < 50%
inhibition at 10 µM (KIT): < 50%
inhibition at 10 µM (NEK2): < 50%
inhibition at 10 µM [2]: < 50%
Percent Competition (PRKR): <50%
inhibition at 10 µM (PKN2): < 50%
inhibition at 10 µM (STK33): < 50%
inhibition at 10 µM (INSR): < 50%
inhibition at 10 µM (ABL1(F317L)): < 50%
inhibition at 10 µM (TIE2): < 50%
inhibition at 10 µM (MERTK): < 50%
Structure (SMILES): Fc1ccc(-c2c(-c3ccncc3)[nH]c3nccnc23)cc1 [RO1155697-000-005]
